Data from patent US9402821B2, “Methods and pharmaceutical compositions for treatment of cystic fibrosis” (INSERM (Institut National de la sante et de la Recherche …, priority 2012, dated 2016).

Tested on: NF-κB transcriptional activity
Assay: NF-κB firefly luciferase reporter assay, TNFα-stimulated cells
Type: cell-based
Conditions: TNFα 10 ng/ml; BEAS-2B and HeLa cells with wt or deltaF508-CFTR (FIGS. 1A, B)
Protocol: All cells were transiently transfected by NF-κB firefly luciferase reporter and renilla luciferase reference. A. HeLa control cells (Ctr) were pre-treated with diluent (0.5%) or different doses of sulindac for 1 h and stimulated for 1 h with 10 ng/ml TNFα. After removal of TNFα, cells were incubated for 4 h with sulindac. Luciferase activity was analysed in protein extract. The NF-κB transcriptional activity in cells treated with sulindac+TNFα was expressed in percent of diluent+TNFα. B. Hela cells Wt, DF508 and Ctr were pre-treated with diluent (0.5%), ibuprofen (500 μM) or sulindac (500 μM) for 1 h and stimulated for 1 h with […] TNFα. After removal of TNFα, cells were incubated for 4 h with pharmacological treatment. The NF-κB transcriptional activity in cells treated with ibuprofen+TNFα and sulindac+TNFα was expressed in percent of diluent+TNFα. Results of at least three independent experiments, means±SEM. Unilateral paired t test: * p<0.02
All cells were pre-treated with diluent (0.5%), sulindac ([…]) or sulindac sulfone (250 μM) for 1 h and stimulated for 1 h with 10 ng/ml TNFα. […]
Plasmid Constructs and Transient Transfection To assay the transcriptional activity of NF-κB, pNF-κBLuc, a luciferase reporter plasmid containing five sequential NF-κB binding sites upstream of a minimum promoter element, NF-κB-Luc (Stratagene), was used. Transcriptional activity of the IL-8 promoter was evaluated with reporter constructs consisting of the IL-8 promoter (−133 bp from the transcription start site) fused to the Luciferase gene, kindly provided by Naofumi Mukaida. […]
Cells were lysed with the Passive Lysis Buffer (Promega), and luciferase activity in the cellular extracts was determined by the Dual Luciferase Assay System (Promega) using a luminometer (Tristar; Berthold). The results were normalized to those obtained with the Renilla luciferase reference plasmid used to control the transfection efficiency, and the values were expressed as luminescence intensity (Luciferase/Renilla). […]
The transcriptional activity of NF-κB and IL-8 promoter was measured as described before. […]

## CC1=C(CC(=O)O)c2cc(F)ccc2/C1=C\c1ccc([S+](C)[O-])cc1 (stereo not shown) [sulindac, (Z)-5-fluoro-2-methyl-1-[p-(methylsulfinyl)benzylidene]-indene-3-acetic acid]
  transcriptional activity of NF-κB: inhibits transcriptional activity of NF-κB
